According to patent US5344765A, “DNA encoding polypeptides with activity against gram-positive and gram-negative bacteria” (priority 1993, dated 1994):
Square brackets hold non-standard residues; d marks the D form. Ends that are not written are not given here. Peptide text beside a SMILES is read from it. hSer = N[C@@H](CCO)C(=O)O

Experiments:
[1] = tested on: Bacillus megaterium; details: from the literature; cited from earlier work
[2] = tested on: Escherichia coli; test: halo assay, activity per nanomole; type: cell-based; details: per nanomole of polypeptide applied to well
Experimental: (§1) The assay for antimicrobial activity was performed by pouring 10 ml of agar in TYE media containing about 10^7 viable cells of the test organisms. Wells, 2 mm in diameter, were punched in the agar plates. Aliquots of the modified cecropin-like polypeptides (2-12 ul) were then added to each well. The diameter of the inhibition zones, or haloes, around the wells, were measured after overnight incubation at 25° C.
(§2) The cecropin-like polypeptide modified at the carboxy terminus with ehtylenediamine and naturally occurring cecropin A were tested against a variety of organisms. The relative activities of the antimicrobial agents were expressed per nanomole of polypeptide applied to each well (Table 3).

[3] = tested on: B. subtilis; test: halo (inhibition zone) agar assay of bactericidal activity; type: cell-based; details: Bacillus subtilus; per nanomole of polypeptide applied to well
Experimental: as §1
(§3) The activities of various cecropin-like polypeptides were tested against both Gram-negative and Gram-positive organisms. Anti-microbial activity against the Gram-negative organisms remained unaltered for most of the Gram-negative bacteria (except, i.e., Serratia marcescens) as shown in Table 1. […] To determine a standard of halo formation, the various modified cecropin-like polypeptides were also applied to E. coli D21. Activity shown in Tables 1 and 2 is expressed as the ratio of the radius of the cleared halo for each organism versus that for E. coli D21.
as §2

[4] = tested on: M. luteus; test: as above; type: cell-based; details: Micrococcus luteus; per nanomole of polypeptide applied to well
Experimental: as §1, §3, §2

[5] = tested on: B. megaterium; test: as above; type: cell-based, Bacillus megaterium; details: for Relative activity: ratio of the radius of the cleared halo versus that for E. coli D21: B. megaterium, overnight incubation at 25° C.
Experimental: as §1, §3, §2

[6] = tested on: S. faecalis; test: as above; type: cell-based, Streptococcus faecalis
Experimental: as §1, §3, §2

| Compound | Sensitivity of Bacillus megaterium to cecropin [1] | Relative activity: ratio of the radius of the cleared halo versus that for E. coli D21 [5] | other results |
| --- | --- | --- | --- |
| cecropin D | relatively resistant |  |  |
| KWKLFKKIEKVGQNIRDGIIKAGPAVAVVGQATQIAK-NH2 [CA--NH2, cecropin A] | highly sensitive | 0.7 ± 0.05 | Activity per Nanomole (radius of the inhibitory ring) [2]: 6.1 millimeters; Activity per Nanomole (radius of the inhibitory ring) [3]: < 0.5 millimeters; Activity per Nanomole (radius of the inhibitory ring) [4]: 6.1 millimeters; Activity per Nanomole (radius of the inhibitory ring) ([5]; Bacillus megaterium, per nanomole of polypeptide applied to well): 5.1 millimeters; Activity per Nanomole (radius of the inhibitory ring) ([6]; Streptococcus faecalis, per nanomole of polypeptide applied to well): < 0.5 millimeters |
| cecropin B (KWKVFKKIEKMGRNIRNGIVKAGPAIAVLGEAKAL; ends and bridges not checked; UniProt P01508 27-61, looked up) [natural antibacterial peptide purified from immune hemolymph] | highly sensitive |  |  |
| KWKLFKKIEKVGQNIRDGIIKAGPAVAVVGQATQIAK [CA--COOH] |  | 0.2 ± 0.08 |  |
| CC[C@H](C)[C@H](NC(=O)CNC(=O)[C@H](CC(=O)O)NC(=O)[C@H](CCCNC(=N)N)NC(=O)[C@@H](NC(=O)[C@H](CC(N)=O)NC(=O)[C@H](CCC(N)=O)NC(=O)CNC(=O)[C@@H](NC(=O)[C@H](CCCCN)NC(=O)[C@H](CCC(=O)O)NC(=O)[C@@H](NC(=O)[C@H](CCCCN)NC(=O)[C@H](CCCCN)NC(=O)[C@H](Cc1ccccc1)NC(=O)[C@H](CC(C)C)NC(=O)[C@H](CCCCN)NC(=O)[C@H](Cc1c[nH]c2ccccc12)NC(=O)[C@@H](N)CCCCN)[C@@H](C)CC)C(C)C)[C@@H](C)CC)C(=O)N[C@H](C(=O)N[C@@H](CCCCN)C(=O)N[C@@H](C)C(=O)NCC(=O)N1CCC[C@H]1C(=O)N[C@@H](C)C(=O)N[C@H](C(=O)N[C@@H](C)C(=O)N[C@H](C(=O)N[C@H](C(=O)NCC(=O)N[C@@H](CCC(N)=O)C(=O)N[C@@H](C)C(=O)N[C@H](C(=O)N[C@@H](CCC(N)=O)C(=O)N[C@H](C(=O)N[C@@H](C)C(=O)N[C@@H](CCCCN)C(=O)N[C@@H](CCO)C(=O)O)[C@@H](C)CC)[C@@H](C)O)C(C)C)C(C)C)C(C)C)[C@@H](C)CC [CA--HS--COOH] (H-KWKLFKKIEKVGQNIRDGIIKAGPAVAVVGQATQIAK[hSer]-OH) |  | 0.5 ± 0.1 |  |
| CC[C@H](C)[C@H](NC(=O)CNC(=O)[C@H](CC(=O)O)NC(=O)[C@H](CCCNC(=N)N)NC(=O)[C@@H](NC(=O)[C@H](CC(N)=O)NC(=O)[C@H](CCC(N)=O)NC(=O)CNC(=O)[C@@H](NC(=O)[C@H](CCCCN)NC(=O)[C@H](CCC(=O)O)NC(=O)[C@@H](NC(=O)[C@H](CCCCN)NC(=O)[C@H](CCCCN)NC(=O)[C@H](Cc1ccccc1)NC(=O)[C@H](CC(C)C)NC(=O)[C@H](CCCCN)NC(=O)[C@H](Cc1c[nH]c2ccccc12)NC(=O)[C@@H](N)CCCCN)[C@@H](C)CC)C(C)C)[C@@H](C)CC)C(=O)N[C@H](C(=O)N[C@@H](CCCCN)C(=O)N[C@@H](C)C(=O)NCC(=O)N1CCC[C@H]1C(=O)N[C@@H](C)C(=O)N[C@H](C(=O)N[C@@H](C)C(=O)N[C@H](C(=O)N[C@H](C(=O)NCC(=O)N[C@@H](CCC(N)=O)C(=O)N[C@@H](C)C(=O)N[C@H](C(=O)N[C@@H](CCC(N)=O)C(=O)N[C@H](C(=O)N[C@@H](C)C(=O)N[C@@H](CCCCN)C(=O)N[C@@H](CCO)C(N)=O)[C@@H](C)CC)[C@@H](C)O)C(C)C)C(C)C)C(C)C)[C@@H](C)CC [CA--HS--NH2] (H-KWKLFKKIEKVGQNIRDGIIKAGPAVAVVGQATQIAK[hSer]-NH2) |  | 0.4 ± 0.2 | Relative activity: ratio of the radius of the cleared halo versus that for E. coli D21 ([6]; S. faecalis, overnight incubation at 25° C.): 0 |
